Measured values published in publication PMC6478789, “A chemical toolbox for the study of bromodomains and epigenetic signaling” (Nature Communications, 2019).

Experiments:
EP300 = EP300 (Homo sapiens, UniProt Q09472); test: Histone acetyltransferase (HAT) activity assay; type: biochemical;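 also: selectivity screen of bromodomain probe compounds against histone acetyltransferases, with enzyme activity given in percent for compounds tested at 1 and 10 µM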
HAT1 = biological target: T1, HAT1 (Homo sapiens, UniProt O14929); test: Histone acetyltransferase (HAT) activity assay; type: biochemical;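 also: HAT selectivity screen of BRD probe compounds, enzyme activity in % measured with compound at 1 µM and 10 µM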
T1 sequence (O14929 1-419): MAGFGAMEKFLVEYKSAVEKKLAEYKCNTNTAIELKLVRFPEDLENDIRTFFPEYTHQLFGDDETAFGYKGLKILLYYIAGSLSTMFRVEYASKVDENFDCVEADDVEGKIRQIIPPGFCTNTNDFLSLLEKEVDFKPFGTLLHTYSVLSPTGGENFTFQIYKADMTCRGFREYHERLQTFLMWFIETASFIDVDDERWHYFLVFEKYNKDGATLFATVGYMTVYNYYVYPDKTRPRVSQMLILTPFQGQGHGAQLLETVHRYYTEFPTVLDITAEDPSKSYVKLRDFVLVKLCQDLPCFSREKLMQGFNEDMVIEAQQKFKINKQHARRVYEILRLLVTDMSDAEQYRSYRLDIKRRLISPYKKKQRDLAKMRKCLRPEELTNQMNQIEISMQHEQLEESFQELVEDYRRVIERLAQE

MYST1 = biological target: T2, MYST1 (Homo sapiens, UniProt Q9H7Z6); test: Histone acetyltransferase (HAT) activity assay; type: biochemical;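 also: selectivity screen across a panel of histone acetyltransferases, with compounds tested at 1 and 10 µM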
T2 sequence (Q9H7Z6 1-458): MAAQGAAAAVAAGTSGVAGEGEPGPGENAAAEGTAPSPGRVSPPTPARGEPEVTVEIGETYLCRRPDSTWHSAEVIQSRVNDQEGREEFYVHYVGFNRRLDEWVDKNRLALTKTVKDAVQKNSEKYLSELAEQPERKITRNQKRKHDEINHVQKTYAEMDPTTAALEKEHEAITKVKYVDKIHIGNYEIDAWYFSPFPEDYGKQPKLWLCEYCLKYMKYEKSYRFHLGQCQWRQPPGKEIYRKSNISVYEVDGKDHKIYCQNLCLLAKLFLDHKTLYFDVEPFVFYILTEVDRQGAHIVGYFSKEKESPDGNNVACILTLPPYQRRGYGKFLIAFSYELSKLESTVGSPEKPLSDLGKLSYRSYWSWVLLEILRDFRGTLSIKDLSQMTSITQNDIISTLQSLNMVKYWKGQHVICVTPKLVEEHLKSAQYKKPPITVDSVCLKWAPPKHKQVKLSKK

MYST3 = MYST3 (Homo sapiens, UniProt Q92794); test: Histone acetyltransferase (HAT) activity assay; type: biochemical;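 also: selectivity screen of bromodomain probe compounds across a panel of histone acetyltransferases, read out as enzyme activity in %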
Sequence of MYST3 (Q92794 whole entry, species assumed): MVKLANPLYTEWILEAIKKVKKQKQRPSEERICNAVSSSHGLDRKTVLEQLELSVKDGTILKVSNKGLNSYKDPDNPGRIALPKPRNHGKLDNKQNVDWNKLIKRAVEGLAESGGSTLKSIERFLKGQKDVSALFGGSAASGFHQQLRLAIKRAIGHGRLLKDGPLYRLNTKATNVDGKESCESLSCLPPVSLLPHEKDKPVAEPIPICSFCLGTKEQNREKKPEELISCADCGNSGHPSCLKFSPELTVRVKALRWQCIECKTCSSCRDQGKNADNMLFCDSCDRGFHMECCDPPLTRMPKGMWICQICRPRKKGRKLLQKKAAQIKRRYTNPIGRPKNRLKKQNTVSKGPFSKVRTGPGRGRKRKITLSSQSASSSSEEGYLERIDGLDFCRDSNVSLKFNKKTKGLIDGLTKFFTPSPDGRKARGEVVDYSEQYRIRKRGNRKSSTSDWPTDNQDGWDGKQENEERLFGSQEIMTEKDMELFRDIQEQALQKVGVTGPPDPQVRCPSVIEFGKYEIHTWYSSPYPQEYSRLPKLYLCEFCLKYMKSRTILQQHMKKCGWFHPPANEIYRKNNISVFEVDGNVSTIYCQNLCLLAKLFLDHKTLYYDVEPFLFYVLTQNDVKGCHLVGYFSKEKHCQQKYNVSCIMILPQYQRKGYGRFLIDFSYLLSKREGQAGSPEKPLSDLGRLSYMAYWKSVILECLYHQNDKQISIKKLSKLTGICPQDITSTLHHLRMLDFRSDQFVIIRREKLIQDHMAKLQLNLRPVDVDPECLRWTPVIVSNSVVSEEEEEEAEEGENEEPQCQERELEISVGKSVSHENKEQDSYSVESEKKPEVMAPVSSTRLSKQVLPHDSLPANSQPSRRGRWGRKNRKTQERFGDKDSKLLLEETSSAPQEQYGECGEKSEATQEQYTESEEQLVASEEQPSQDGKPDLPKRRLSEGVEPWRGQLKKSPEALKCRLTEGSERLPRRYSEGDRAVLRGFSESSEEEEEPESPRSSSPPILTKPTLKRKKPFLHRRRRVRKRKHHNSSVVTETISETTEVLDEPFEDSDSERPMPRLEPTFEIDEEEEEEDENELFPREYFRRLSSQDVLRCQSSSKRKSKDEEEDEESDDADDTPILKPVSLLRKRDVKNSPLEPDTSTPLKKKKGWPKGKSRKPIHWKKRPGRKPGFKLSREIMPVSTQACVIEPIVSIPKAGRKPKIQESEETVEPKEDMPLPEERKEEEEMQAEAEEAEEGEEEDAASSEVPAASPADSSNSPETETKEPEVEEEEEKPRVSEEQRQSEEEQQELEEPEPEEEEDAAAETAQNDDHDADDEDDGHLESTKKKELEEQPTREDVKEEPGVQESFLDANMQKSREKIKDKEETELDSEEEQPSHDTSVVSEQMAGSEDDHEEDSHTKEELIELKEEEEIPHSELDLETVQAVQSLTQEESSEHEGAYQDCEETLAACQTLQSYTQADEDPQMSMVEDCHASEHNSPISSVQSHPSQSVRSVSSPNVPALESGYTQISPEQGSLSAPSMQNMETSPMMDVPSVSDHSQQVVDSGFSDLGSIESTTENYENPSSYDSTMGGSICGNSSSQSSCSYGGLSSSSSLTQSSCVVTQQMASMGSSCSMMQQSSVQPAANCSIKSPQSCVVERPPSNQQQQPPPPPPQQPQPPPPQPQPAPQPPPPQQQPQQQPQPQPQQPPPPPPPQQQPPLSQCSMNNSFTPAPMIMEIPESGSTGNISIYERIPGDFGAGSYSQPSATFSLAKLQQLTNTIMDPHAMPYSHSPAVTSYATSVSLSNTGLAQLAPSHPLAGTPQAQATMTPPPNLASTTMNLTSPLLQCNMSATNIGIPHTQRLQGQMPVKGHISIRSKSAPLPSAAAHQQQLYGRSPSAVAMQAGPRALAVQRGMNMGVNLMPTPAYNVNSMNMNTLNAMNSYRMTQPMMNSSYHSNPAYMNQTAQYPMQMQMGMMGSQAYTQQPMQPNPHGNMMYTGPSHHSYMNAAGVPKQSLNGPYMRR

GCN5L2 = GCN5L2 (Homo sapiens, UniProt Q92830); test: Histone acetyltransferase (HAT) activity assay; type: biochemical;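 also: selectivity screen of BRD probe compounds across a panel of histone acetyltransferases, HAT activity in % with compound at 1 or 10 µM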
Sequence of GCN5L2 (Q92830 whole entry, species assumed): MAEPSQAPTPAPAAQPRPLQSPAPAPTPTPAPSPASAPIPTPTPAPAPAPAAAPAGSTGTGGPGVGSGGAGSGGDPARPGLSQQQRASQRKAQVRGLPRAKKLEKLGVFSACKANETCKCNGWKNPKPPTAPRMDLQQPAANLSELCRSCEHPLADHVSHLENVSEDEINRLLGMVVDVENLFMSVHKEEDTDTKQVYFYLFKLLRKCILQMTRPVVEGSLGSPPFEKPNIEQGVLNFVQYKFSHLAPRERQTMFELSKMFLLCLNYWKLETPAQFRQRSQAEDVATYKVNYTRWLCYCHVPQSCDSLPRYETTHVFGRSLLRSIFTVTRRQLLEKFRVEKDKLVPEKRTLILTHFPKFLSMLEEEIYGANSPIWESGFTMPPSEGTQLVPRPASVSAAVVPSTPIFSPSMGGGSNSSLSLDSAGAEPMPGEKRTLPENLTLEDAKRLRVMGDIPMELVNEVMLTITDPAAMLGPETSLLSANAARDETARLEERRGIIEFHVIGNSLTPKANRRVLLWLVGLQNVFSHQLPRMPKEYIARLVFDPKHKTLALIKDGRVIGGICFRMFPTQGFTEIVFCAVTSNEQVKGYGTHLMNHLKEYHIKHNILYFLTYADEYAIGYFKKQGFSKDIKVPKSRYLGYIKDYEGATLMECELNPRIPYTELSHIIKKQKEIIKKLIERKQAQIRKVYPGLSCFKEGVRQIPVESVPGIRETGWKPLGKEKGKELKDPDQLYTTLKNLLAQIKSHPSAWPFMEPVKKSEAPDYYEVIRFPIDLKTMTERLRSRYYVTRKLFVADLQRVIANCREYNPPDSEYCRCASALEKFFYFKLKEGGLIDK

MDA-MB-436 cells = test: Confluency with BRPF inhibitors and BAY-876; type: cell-based, human; conditions: 3 μM, 7 days
Description: Graph indicates mean, error bars denote s.d. from eight wells (from two independent assays) and p-value was computed using the Benjamini-Hochberg t test; ***p < 0.001. d Immunoblot validation of BRPF knockdown in MDA-MB-436 cells. e Quantitative real-time PCR (RT-qPCR) validation of BRPF knockdown in MDA-MB-436 cells. […] Raw data images are available in Supplementary Fig. 4
TNBC cell lines were seeded in sterile, transparent 384-well plates at 500 cells per well in 50 µl media. Chemical probes were delivered in dimethyl sulfoxide (DMSO). Cell confluency at 7 days was evaluated using an Incucyte ZOOM live cell imaging device (Essen Bioscence) and analyzed with the Incucyte ZOOM (2016A) software based on phase contrast image.

BRPF1B = conditions: ITC data; ref 11 (suppl.); cited from earlier work
BRPF2 = conditions: ITC data; ref 11 (suppl.); cited from earlier work
BRD9 = conditions: ITC data; ref 11 (suppl.); read-out: KD (nM), off target BRD9; cited from earlier work
ATAD2A = biological target: T3, ATAD2A (Homo sapiens, UniProt Q6PL18); test: BROMOscan ligand-binding assay; conditions: read-out: KD (BROMOscan); sheet prints no unit (nM)
T3 sequence (Q6PL18 980-1092 limits assumed): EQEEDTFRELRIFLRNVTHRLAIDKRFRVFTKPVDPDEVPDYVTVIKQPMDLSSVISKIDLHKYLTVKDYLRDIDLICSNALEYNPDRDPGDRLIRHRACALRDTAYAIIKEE
Description: (§1) BROMOscan is a binding assay based on the well-known KINOMEscan technology. This assay measures the binding of a DNA-tagged bromodomain to an immobilized BRD ligand. If an inhibitor is present, it will compete with the bromodomain binding to the immobilized ligand, resulting in reduction of a quantitative PCR (qPCR) signal in a dose-dependent manner.

ATAD2B = biological target: T4, ATAD2B (Homo sapiens, UniProt Q9ULI0); test: BROMOscan ligand-binding assay; conditions: read-out: KD (BROMOscan); sheet prints no unit (nM)
T4 sequence (Q9ULI0 951-1066 limits assumed): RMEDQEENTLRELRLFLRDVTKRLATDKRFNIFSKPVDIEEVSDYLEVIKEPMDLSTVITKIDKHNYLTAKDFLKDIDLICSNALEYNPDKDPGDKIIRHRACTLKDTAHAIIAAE
Description: as §1

BAZ2B = biological target: T5, BAZ2B (Homo sapiens, UniProt Q9UIF8); test: BROMOscan ligand-binding assay; conditions: read-out: KD (BROMOscan); sheet prints no unit (nM)
T5 sequence (Q9UIF8 2060-2164 limits assumed): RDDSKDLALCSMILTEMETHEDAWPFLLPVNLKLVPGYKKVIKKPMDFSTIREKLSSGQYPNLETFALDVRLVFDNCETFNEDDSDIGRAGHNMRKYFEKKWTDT
Description: as §1

BRD1 = biological target: T6, BRD1 (Homo sapiens, UniProt O95696); test: BROMOscan ligand-binding assay; conditions: read-out: KD (BROMOscan); sheet prints no unit (nM)
T6 sequence (O95696 562-666 limits assumed): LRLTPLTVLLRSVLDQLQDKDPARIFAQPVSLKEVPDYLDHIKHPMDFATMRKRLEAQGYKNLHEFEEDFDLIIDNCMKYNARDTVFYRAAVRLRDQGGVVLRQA
Description: as §1

BRD2(1) = BRD2(1) (Homo sapiens, UniProt P25440); test: BROMOscan ligand-binding assay; conditions: read-out: KD (BROMOscan); sheet prints no unit (nM)
Sequence of BRD2(1) (P25440 74-180 limits assumed): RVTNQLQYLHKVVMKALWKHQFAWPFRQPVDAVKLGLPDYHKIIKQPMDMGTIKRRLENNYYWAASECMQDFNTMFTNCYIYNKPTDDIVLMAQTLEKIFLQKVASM
Description: as §1

BRD2(1,2) = BRD2(1,2) (Homo sapiens, UniProt P25440); test: BROMOscan ligand-binding assay; conditions: read-out: KD (BROMOscan); sheet prints no unit (nM)
Sequence of BRD2(1,2) (P25440 71-455 limits assumed): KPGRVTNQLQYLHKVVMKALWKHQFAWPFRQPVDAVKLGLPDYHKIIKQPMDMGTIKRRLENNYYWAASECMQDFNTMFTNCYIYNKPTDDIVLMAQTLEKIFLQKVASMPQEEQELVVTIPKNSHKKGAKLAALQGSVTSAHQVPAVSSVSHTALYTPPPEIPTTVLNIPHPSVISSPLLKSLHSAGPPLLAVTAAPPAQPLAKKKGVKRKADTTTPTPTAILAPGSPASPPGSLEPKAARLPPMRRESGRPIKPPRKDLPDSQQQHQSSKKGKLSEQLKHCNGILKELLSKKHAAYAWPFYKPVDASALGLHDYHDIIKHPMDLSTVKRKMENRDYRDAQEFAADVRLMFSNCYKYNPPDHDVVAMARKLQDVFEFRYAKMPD
Description: as §1

BRD2(2) = BRD2(2) (Homo sapiens, UniProt P25440); test: BROMOscan ligand-binding assay; conditions: read-out: KD (BROMOscan); sheet prints no unit (nM)
Sequence of BRD2(2) (P25440 344-453 limits assumed): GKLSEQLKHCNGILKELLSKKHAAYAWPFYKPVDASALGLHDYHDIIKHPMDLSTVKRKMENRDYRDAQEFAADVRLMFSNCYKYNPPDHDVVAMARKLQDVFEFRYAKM
Description: as §1

BRD3(1) = BRD3(1) (Homo sapiens, UniProt Q15059); test: BROMOscan ligand-binding assay; conditions: read-out: KD (BROMOscan); sheet prints no unit (nM)
Sequence of BRD3(1) (Q15059 34-140 limits assumed): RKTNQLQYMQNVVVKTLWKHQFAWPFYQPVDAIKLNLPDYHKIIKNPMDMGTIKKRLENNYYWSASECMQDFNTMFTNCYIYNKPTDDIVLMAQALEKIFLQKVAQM
Description: as §1

BRD3(1,2) = BRD3(1,2) (Homo sapiens, UniProt Q15059); test: BROMOscan ligand-binding assay; conditions: read-out: KD (BROMOscan); sheet prints no unit (nM)
Sequence of BRD3(1,2) (Q15059 24-416 limits assumed): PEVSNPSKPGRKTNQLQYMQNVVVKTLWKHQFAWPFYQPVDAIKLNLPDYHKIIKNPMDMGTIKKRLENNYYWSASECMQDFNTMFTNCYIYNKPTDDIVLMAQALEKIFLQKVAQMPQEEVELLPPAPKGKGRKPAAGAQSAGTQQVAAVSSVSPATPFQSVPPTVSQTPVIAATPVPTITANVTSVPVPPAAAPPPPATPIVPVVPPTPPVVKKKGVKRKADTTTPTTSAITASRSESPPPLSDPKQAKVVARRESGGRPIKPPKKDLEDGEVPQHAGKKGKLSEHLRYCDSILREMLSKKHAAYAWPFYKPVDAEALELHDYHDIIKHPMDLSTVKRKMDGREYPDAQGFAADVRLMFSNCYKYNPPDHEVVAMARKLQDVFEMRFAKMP
Description: as §1

BRD3(2) = BRD3(2) (Homo sapiens, UniProt Q15059); test: BROMOscan ligand-binding assay; conditions: read-out: KD (BROMOscan); sheet prints no unit (nM)
Sequence of BRD3(2) (Q15059 306-415 limits assumed): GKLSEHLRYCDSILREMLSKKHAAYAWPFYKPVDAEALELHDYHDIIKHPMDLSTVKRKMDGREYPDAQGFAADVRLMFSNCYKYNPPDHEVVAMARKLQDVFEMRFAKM
Description: as §1

BRD4(1) = BRD4(1) (Homo sapiens, UniProt O60885); test: BROMOscan ligand-binding assay; conditions: read-out: KD (BROMOscan); sheet prints no unit (nM)
Description: as §1

BRD4(1,2) = BRD4(1,2) (Homo sapiens, UniProt O60885); test: BROMOscan ligand-binding assay; conditions: read-out: KD (BROMOscan); sheet prints no unit (nM)
Description: as §1

BRD4(2) = BRD4(2) (Homo sapiens, UniProt O60885); test: BROMOscan ligand-binding assay; conditions: read-out: KD (BROMOscan); sheet prints no unit (nM)
Description: as §1

TAF1(2) = biological target: T7, TAF1(2) (Homo sapiens, UniProt P21675); test: BROMOscan ligand-binding assay; conditions: read-out: KD (BROMOscan); sheet prints no unit (nM)
T7 sequence (P21675 1519-1628 limits assumed): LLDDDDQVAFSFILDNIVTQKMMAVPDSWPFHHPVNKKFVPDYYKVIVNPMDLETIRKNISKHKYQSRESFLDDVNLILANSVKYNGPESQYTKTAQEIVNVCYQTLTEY
Description: as §1

**Q.** For COc1cc(C#N)ccc1S(=O)(=O)Nc1ccc2c(c1)cc(C)c(=O)n2C [NIC57], which “HATs Activity (%)” value (EP300; 1µM) is on record?
**A.** 94%

**Q.** And the “HATs Activity (%)” value (EP300; 10µM)?
**A.** 93%

**Q.** And the “HATs Activity (%)” value (HAT1; 1µM)?
**A.** 104%

**Q.** And the “HATs Activity (%)” value (HAT1; 10µM)?
**A.** 104%

**Q.** And the “HATs Activity (%)” value (MYST1; 1µM)?
**A.** 96%

**Q.** What about the “HATs Activity (%)” value (MYST1; 10µM) of the same compound?
**A.** 91%

**Q.** And the “HATs Activity (%)” value (MYST3; 1µM)?
**A.** 98%

**Q.** And the “HATs Activity (%)” value (MYST3; 10µM)?
**A.** 99%

**Q.** What about the “HATs Activity (%)” value (GCN5L2; 1µM) of the same compound?
**A.** 100%

**Q.** What about the “HATs Activity (%)” value (GCN5L2; 10µM) of the same compound?
**A.** 96%

**Q.** What about the “synergy with BAY-876” value (MDA-MB-436 cells) of the same compound?
**A.** no synergy

**Q.** And the Kd (BRPF1B)?
**A.** 31 nM

**Q.** What about the Kd (BRPF2) of the same compound?
**A.** 108 nM

**Q.** And the Kd (BRD9)?
**A.** 998 nM

**Q.** What about the Kd (ATAD2A) of the same compound?
**A.** > 30000 nM

**Q.** What about the Kd (ATAD2B) of the same compound?
**A.** > 30000 nM

**Q.** What about the Kd (BAZ2B) of the same compound?
**A.** 9400 nM

**Q.** And the Kd (BRD1)?
**A.** 46 nM

**Q.** What about the Kd (BRD2(1)) of the same compound?
**A.** 5900 nM

**Q.** And the Kd (BRD2(1,2))?
**A.** 12000 nM

**Q.** And the Kd (BRD2(2))?
**A.** > 30000 nM

**Q.** And the Kd (BRD3(1))?
**A.** 7200 nM

**Q.** And the Kd (BRD3(1,2))?
**A.** 12000 nM

**Q.** What about the Kd (BRD3(2)) of the same compound?
**A.** > 30000 nM

**Q.** And the Kd (BRD4(1))?
**A.** 3300 nM

**Q.** And the Kd (BRD4(1,2))?
**A.** 15000 nM

**Q.** What about the Kd (BRD4(2)) of the same compound?
**A.** > 30000 nM

**Q.** And the Kd (TAF1(2))?
**A.** 4900 nM
